Literature values as cited in patent US20110071172A1, “SUBSTITUTED QUINAZOLINES AS BLOOD PLATELET LOWERING AGENTS” (Shire LLC, priority 2008, published 2011).

Experiments:
[1] = system: human megakaryocytopoiesis
[2] = system: human phosphodiesterase 111 (PDE III); settings: for IC50: read-out: IC50, PDE III inhibition
[3] = system: erythroid or myelomonocytic differentiation; settings: stimulated by erythropoietin or granulocyte-macrophage colony-stimulating factor

| Structure (SMILES) | potency in inhibition of megakaryocytopoiesis relative to parent drug ([1]; versus anagrelide) | potency as PDE III inhibitor relative to anagrelide ([2]; ratio versus anagrelide) | half-life (typical) [h] | exposure in vivo relative to parent drug (typical exposures versus anagrelide) | IC50 [2] [µM] | IC50 ([1]; estimated, in vitro, dose-dependent, read-out: IC50, inhibition of TPO-induced megakaryocytopoiesis) [µM] | first pass effect (in vivo) [%] | effect on erythroid or myelomonocytic differentiation [3] |
| --- | --- | --- | --- | --- | --- | --- | --- | --- |
| O=C1NC2=Nc3ccc(Cl)c(Cl)c3CN2C1O (stereo not drawn) [3-hydroxyanagrelide] | no more potent than the parent drug | over 40 fold | 2.5 | 2-3 fold |  |  |  |  |
| Cc1[nH]c(=O)c(C#N)cc1-c1ccncc1 [milrinone] |  |  |  |  | 0.17 to 0.35 |  |  |  |
| O=C1CN2Cc3c(ccc(Cl)c3Cl)N=C2N1 [Anagrelide, 6,7-dichloro-1,5-dihydroimidazo[2,1-b]-quinazolin-2(3H)-one] |  |  |  |  | ~0.029 | ~0.026 | > 50 | does not affect |
